# Test results from ChEMBL document CHEMBL3886193, “Bicyclic sulfonamide compounds as sodium channel inhibitors” (2015).
# Several values for one entry are separate records, joined by “and”; a condition that tells them apart may be missing. Equal values may be shown once.
# Biological target: Sodium channel protein type 9 subunit alpha (Homo sapiens, UniProt Q15858)
# Experiment: Compound effects were measured on a partially inactivated state of the sodium channel. Cells were clamped to a holding potential yielding 20 to 50% inactivation. To elicit sodium current, channels were activated by pulsing to -10 mV for 20 msec. This voltage protocol was repeated at a rate of 0.1 Hz throughout the experiment.
# Type: cell-based, Sf9
# Sequence of Sodium channel protein type 9 subunit alpha (Q15858 whole entry): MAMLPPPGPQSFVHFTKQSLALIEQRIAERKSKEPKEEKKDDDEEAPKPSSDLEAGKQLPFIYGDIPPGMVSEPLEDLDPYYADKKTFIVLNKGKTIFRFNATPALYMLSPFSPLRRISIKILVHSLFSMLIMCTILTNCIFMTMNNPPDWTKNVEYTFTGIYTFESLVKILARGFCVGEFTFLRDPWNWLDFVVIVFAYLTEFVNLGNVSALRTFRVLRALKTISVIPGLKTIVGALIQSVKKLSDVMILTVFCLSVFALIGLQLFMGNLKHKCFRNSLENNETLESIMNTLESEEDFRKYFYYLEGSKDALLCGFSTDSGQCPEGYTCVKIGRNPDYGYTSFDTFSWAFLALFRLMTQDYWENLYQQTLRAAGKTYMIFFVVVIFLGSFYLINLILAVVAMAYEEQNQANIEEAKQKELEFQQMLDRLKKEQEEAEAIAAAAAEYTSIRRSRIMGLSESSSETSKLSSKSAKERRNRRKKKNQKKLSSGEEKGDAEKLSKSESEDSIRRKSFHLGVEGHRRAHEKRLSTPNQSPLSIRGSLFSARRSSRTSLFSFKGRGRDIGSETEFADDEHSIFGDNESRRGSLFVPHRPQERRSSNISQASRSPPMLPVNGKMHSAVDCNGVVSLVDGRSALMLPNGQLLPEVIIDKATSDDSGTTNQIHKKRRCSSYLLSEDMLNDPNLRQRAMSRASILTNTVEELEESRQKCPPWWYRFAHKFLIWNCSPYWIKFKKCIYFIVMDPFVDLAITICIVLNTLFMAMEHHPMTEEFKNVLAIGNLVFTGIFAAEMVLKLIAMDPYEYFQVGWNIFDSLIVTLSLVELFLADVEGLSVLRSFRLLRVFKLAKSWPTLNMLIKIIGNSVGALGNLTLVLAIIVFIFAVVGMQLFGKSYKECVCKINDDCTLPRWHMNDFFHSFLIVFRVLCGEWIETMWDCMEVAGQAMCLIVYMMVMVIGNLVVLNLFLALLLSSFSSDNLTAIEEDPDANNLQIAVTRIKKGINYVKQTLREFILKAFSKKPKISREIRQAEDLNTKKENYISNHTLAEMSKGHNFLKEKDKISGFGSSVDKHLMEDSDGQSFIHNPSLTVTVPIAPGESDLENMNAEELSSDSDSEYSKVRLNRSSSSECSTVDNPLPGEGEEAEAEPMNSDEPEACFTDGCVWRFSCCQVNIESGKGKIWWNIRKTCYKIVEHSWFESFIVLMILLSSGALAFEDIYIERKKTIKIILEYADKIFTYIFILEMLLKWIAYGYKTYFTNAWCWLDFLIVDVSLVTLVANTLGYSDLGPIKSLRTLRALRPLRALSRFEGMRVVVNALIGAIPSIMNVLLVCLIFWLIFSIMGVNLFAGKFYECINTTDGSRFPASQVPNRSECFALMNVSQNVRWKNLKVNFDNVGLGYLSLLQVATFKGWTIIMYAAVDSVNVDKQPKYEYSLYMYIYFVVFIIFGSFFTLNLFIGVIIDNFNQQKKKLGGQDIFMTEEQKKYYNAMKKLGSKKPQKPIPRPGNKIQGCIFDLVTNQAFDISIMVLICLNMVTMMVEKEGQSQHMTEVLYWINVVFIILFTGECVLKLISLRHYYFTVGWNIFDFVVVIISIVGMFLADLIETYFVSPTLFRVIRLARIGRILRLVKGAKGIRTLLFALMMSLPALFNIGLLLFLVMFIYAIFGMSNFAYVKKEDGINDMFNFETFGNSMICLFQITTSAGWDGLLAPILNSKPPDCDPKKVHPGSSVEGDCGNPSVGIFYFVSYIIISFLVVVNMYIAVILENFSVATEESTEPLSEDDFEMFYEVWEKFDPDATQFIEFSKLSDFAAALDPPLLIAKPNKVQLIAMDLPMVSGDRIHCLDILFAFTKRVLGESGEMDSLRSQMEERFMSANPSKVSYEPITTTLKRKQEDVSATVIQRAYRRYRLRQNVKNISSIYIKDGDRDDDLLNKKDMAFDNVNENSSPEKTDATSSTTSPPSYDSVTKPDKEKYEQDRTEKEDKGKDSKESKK
row,SMILES,IC50
1,CCc1nccc(NS(=O)(=O)c2ccc3c(ccc(=O)n3-c3cc(F)c(Br)cc3OC)c2)n1,124 nM
2,COc1cc(-c2ccc(-n3c(=O)ccc4cc(S(=O)(=O)Nc5ccnc(C)n5)ccc43)c(OC)c2)ccc1C,296 nM
3,COc1cc(-c2ccc(Cl)cc2)ccc1-n1c(=O)ccc2cc(S(=O)(=O)Nc3ncccn3)ccc21,95 nM
4,COc1cc(-c2cc(F)cc(OC(F)F)c2)c(F)cc1-n1c(=O)ccc2cc(S(=O)(=O)Nc3ccon3)ccc21,11 nM
5,COc1cc(OC)cc(-c2cc(OC)c(-n3c(=O)ccc4cc(S(=O)(=O)Nc5cccnn5)ccc43)cc2F)c1,83 nM
6,COc1cc(-c2cc(C)cc(F)c2)c(F)cc1-n1c(=O)ccc2cc(S(=O)(=O)Nc3ccon3)ccc21,8 nM
7,COCc1cc(NS(=O)(=O)c2ccc3c(ccc(=O)n3-c3cc(F)c(Br)cc3OC)c2)ncn1,4530 nM
8,COc1cc(C#CC2(C)COC2)c(F)cc1-n1c(=O)ccc2cc(S(=O)(=O)Nc3ccon3)ccc21,1550 nM
9,COc1cc(OC)cc(-c2cc(OC)c(-n3c(=O)ccc4cc(S(=O)(=O)Nc5ncccn5)ccc43)cc2F)c1,64 nM
10,COc1cc(OC)cc(-c2cc(OC)c(-n3c(=O)ccc4cc(S(=O)(=O)Nc5ccon5)ccc43)cc2F)c1,12 nM
11,COc1cc(-c2ccc(F)c(F)c2)c(F)cc1-n1c(=O)ccc2cc(S(=O)(=O)Nc3cccnn3)ccc21,16 nM
12,COc1cc(-c2ccc(C#N)c(C)c2)c(F)cc1-n1c(=O)ccc2cc(S(=O)(=O)Nc3ccon3)ccc21,91 nM
13,COc1cc(Cl)cc(-c2ccc(-n3c(=O)cnc4cc(S(=O)(=O)Nc5ccon5)ccc43)c(OC)c2)c1,52 nM
14,COc1cc(Oc2ccc(F)cc2)ccc1-n1c(=O)ccc2cc(S(=O)(=O)Nc3ccon3)ccc21,49 nM
15,COc1cc(C2CCCC2)c(F)cc1-n1c(=O)ccc2cc(S(=O)(=O)Nc3ccon3)ccc21,88 nM
16,Cc1cc(-c2cc(C)c(-n3c(=O)ccc4cc(S(=O)(=O)Nc5ccncn5)ccc43)cc2F)ccc1Cl,684 nM
17,COc1ccc(CC(=O)OC(C)(C)C)cc1-n1c(=O)ccc2cc(S(=O)(=O)Nc3ccon3)ccc21,1980 nM
18,COc1cc(-c2cccc(C(F)(F)F)c2)c(F)cc1-n1c(=O)ccc2cc(S(=O)(=O)Nc3ncccn3)ccc21,10 nM
19,COc1cc(-c2cc(F)cc(C(F)(F)F)c2)ccc1-n1c(=O)ccc2cc(S(=O)(=O)Nc3ccon3)ccc21,9 nM
20,COc1cc(-c2ccc(Cl)c(C)c2)ccc1-n1c(=O)ccc2cc(S(=O)(=O)Nc3ncon3)ccc21,30 nM
21,COc1cc(Br)c(F)cc1-n1c(=O)ccc2cc(S(=O)(=O)Nc3nccc(C)n3)ccc21,1560 nM
22,COc1cc(-c2ccc(-n3c(=O)ccc4cc(S(=O)(=O)Nc5cccnn5)ccc43)c(OC)c2)ccc1C,143 nM
23,COc1cc(-c2cc(OC)c(-n3c(=O)ccc4cc(S(=O)(=O)Nc5cccnn5)ccc43)cc2F)ccc1Cl,10 nM

row,SMILES,IC50
1,COc1cc(-c2ccc(-n3c(=O)ccc4cc(S(=O)(=O)Nc5ncccn5)ccc43)c(OC)c2)ccc1Cl,21 nM
2,COc1cc(C2CCOCC2)c(F)cc1-n1c(=O)ccc2cc(S(=O)(=O)Nc3ccon3)ccc21,3070 nM
3,COc1cc(-c2cccc(OC(F)F)c2)c(F)cc1-n1c(=O)ccc2cc(S(=O)(=O)Nc3ncccn3)ccc21,23 nM
4,COc1cc(-c2cccc(C(F)F)c2)c(F)cc1-n1c(=O)ccc2cc(S(=O)(=O)Nc3ccon3)ccc21,35 nM
5,COc1cc(-c2cc(Cl)ccc2C)ccc1-n1c(=O)ccc2cc(S(=O)(=O)Nc3ncccn3)ccc21,12 nM
6,COc1cc(-c2ccc(F)c(OC(F)F)c2)c(F)cc1-n1c(=O)ccc2cc(S(=O)(=O)Nc3ccon3)ccc21,22 nM
7,COc1cc(-c2cc(F)cc(Cl)c2)c(F)cc1-n1c(=O)ccc2cc(S(=O)(=O)Nc3ncco3)ccc21,14 nM
8,COc1cc(Br)c(F)cc1-n1c(=O)ccc2cc(S(=O)(=O)Nc3ccnc(C)n3)ccc21,3010 nM
9,COc1ccc(-c2ccc(F)nc2)cc1-n1c(=O)ccc2cc(S(=O)(=O)Nc3ccon3)ccc21,902 nM
10,COc1cc(-c2ccc(-n3c(=O)ccc4cc(S(=O)(=O)Nc5cc(C)ncn5)ccc43)c(OC)c2)ccc1C,198 nM
11,COc1nc(OCC2CCCCC2)c(Cl)cc1-n1c(=O)ccc2cc(S(=O)(=O)Nc3ccon3)ccc21,52 nM
12,COc1cc(-c2ccc(Cl)c(C)c2)ccc1-n1c(=O)ccc2cc(S(=O)(=O)Nc3ncco3)ccc21,9 nM
13,COc1cc(-c2cc(Cl)ccn2)c(F)cc1-n1c(=O)ccc2cc(S(=O)(=O)Nc3ccon3)ccc21,93 nM
14,COc1cc(NS(=O)(=O)c2ccc3c(ccc(=O)n3-c3cc(F)c(Br)cc3OC)c2)ncn1,312 nM
15,COc1cc(-c2cccc(OC(F)F)c2)c(F)cc1-n1c(=O)ccc2cc(S(=O)(=O)Nc3ccnc(C)n3)ccc21,28 nM
16,COc1cc(-c2ccc(Cl)c(C)c2)c(F)cc1-n1c(=O)ccc2cc(S(=O)(=O)Nc3ccncn3)ccc21,5 nM
17,COc1cc(C#CC2CCCC2)c(F)cc1-n1c(=O)ccc2cc(S(=O)(=O)Nc3ccon3)ccc21,22 nM
18,COc1cc(C#CC2CCCC2)c(F)cc1-n1c(=O)ccc2cc(S(=O)(=O)Nc3cccnn3)ccc21,8 nM
19,COc1cc(Cl)cc(-c2cc(OC)c(-n3c(=O)ccc4cc(S(=O)(=O)Nc5ncccn5)ccc43)cc2C)c1,5 nM
20,COc1cc(NS(=O)(=O)c2ccc3c(ccc(=O)n3-c3cc(F)c(-c4cc(F)cc(Cl)c4)cc3OC)c2)ncn1,49 nM
21,COc1cc(Cl)ccc1-c1cc(OC)c(-n2c(=O)ccc3cc(S(=O)(=O)Nc4ccon4)ccc32)cc1F,16 nM
22,COc1cc(CC2CCCC2)c(F)cc1-n1c(=O)ccc2cc(S(=O)(=O)Nc3ccon3)ccc21,11 nM
23,COc1cc(Cl)cc(-c2ccc(-n3c(=O)ccc4cc(S(=O)(=O)Nc5ccon5)ccc43)c(OC)c2)c1,10 nM

row,SMILES,IC50
1,COc1cc(Br)c(F)cc1-n1c(=O)ccc2cc(S(=O)(=O)Nc3cc(C)ncn3)ccc21,1040 nM
2,COc1ccc(-c2cc(OC)c(-n3c(=O)ccc4cc(S(=O)(=O)Nc5ccon5)ccc43)cc2F)cc1Cl,25 nM
3,COc1cc(-c2cc(F)cc(C(F)(F)F)c2)ccc1-n1c(=O)ccc2cc(S(=O)(=O)Nc3ncco3)ccc21,37 nM
4,COc1cc(-c2ccc(-n3c(=O)ccc4cc(S(=O)(=O)Nc5ncccn5)ccc43)c(OC)c2)ccc1C,243 nM
5,COc1cc(-c2ccc(F)cc2)c(F)cc1-n1c(=O)ccc2cc(S(=O)(=O)Nc3ncccn3)ccc21,193 nM
6,COc1cc(-c2cc(F)cc(C(F)(F)F)c2)ccc1-n1c(=O)ccc2cc(S(=O)(=O)Nc3ncc(F)cn3)ccc21,35 nM
7,COc1cc(C2CC2)c(Cl)cc1-n1c(=O)ccc2cc(S(=O)(=O)Nc3ccon3)ccc21,481 nM
8,COc1cc(-c2ccc(Cl)c(C)c2)c(F)cc1-n1c(=O)cnc2cc(S(=O)(=O)Nc3ncccn3)ccc21,23 nM and 6 nM
9,COc1cc(-c2ccc(F)c(F)c2)ccc1-n1c(=O)ccc2cc(S(=O)(=O)Nc3ncc(F)cn3)ccc21,76 nM
10,COc1cc(C#CC(C)(C)OC)c(F)cc1-n1c(=O)ccc2cc(S(=O)(=O)Nc3ccon3)ccc21,373 nM
11,COc1cc(-c2ccc(Cl)cc2)ccc1-n1c(=O)ccc2cc(S(=O)(=O)Nc3ccon3)ccc21,22 nM
12,COc1cc(-c2ccccn2)c(F)cc1-n1c(=O)ccc2cc(S(=O)(=O)Nc3ccon3)ccc21,888 nM
13,COc1cc(-c2cc(Cl)cnc2OC)c(F)cc1-n1c(=O)ccc2cc(S(=O)(=O)Nc3ccon3)ccc21,24 nM
14,COc1cc(-c2ccc(F)cc2)c(F)cc1-n1c(=O)ccc2cc(S(=O)(=O)Nc3ccon3)ccc21,9 nM
15,COc1cc(OC)cc(-c2cc(OC)c(-n3c(=O)ccc4cc(S(=O)(=O)Nc5ncc(F)cn5)ccc43)cc2F)c1,33 nM
16,COc1cc(-c2cc(Cl)cnc2OC)c(F)cc1-n1c(=O)ccc2cc(S(=O)(=O)Nc3ncccn3)ccc21,72 nM
17,COc1cc(CC2CCCCC2)c(F)cc1-n1c(=O)ccc2cc(S(=O)(=O)Nc3ncccn3)ccc21,39 nM
18,COc1cc(-c2ccc(Cl)c(C)c2)c(F)cc1-n1c(=O)ccc2cc(S(=O)(=O)Nc3ccon3)c(F)cc21,13 nM
19,CCc1nccc(NS(=O)(=O)c2ccc3c(ccc(=O)n3-c3cc(F)c(-c4cc(F)cc(Cl)c4)cc3OC)c2)n1,7920 nM
20,COc1cc(-c2ccc(-n3c(=O)ccc4cc(S(=O)(=O)Nc5ncc(F)cn5)ccc43)c(OC)c2)ccc1C,166 nM
21,COc1cc(C(F)(F)F)c(Cl)cc1-n1c(=O)ccc2cc(S(=O)(=O)Nc3ccncn3)ccc21,123 nM
22,COc1cc(CC2CCCCC2)c(F)cc1-n1c(=O)ccc2cc(S(=O)(=O)Nc3ncon3)ccc21,30 nM
23,COc1cc(-c2cccc(C(F)(F)F)c2)c(F)cc1-n1c(=O)ccc2cc(S(=O)(=O)Nc3cc(C)ncn3)ccc21,10 nM
